# Measured values taken from PubChem BioAssay AID464 (The Scripps Research Institute Molecular Screening Center, 2006).
# Active and inactive are the calls of the source.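 Rule for the calls: active = Compounds that kill half the cells at a concentration of 5 micromolar or below, from the fitted or estimated CC50; inactive = CC50 above 5 micromolar.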
# System: Jurkat E6.1 viability, ATP luminescence, 48 h
# Experiment: viability loss in Jurkat T cells – cell-based, ATP luminescence, 48 h, 60K MLSMR, cytotoxicity control, dose response (AID 464)
row,Compound,CC50
1,COCCCN(C(C)=O)c1nc(-c2ccc(OC)cc2)cs1,> 4.4 µM (inactive)
2,COc1ccccc1-c1nnc(Nc2nc3c(OC)cccc3s2)o1,0.664 µM
3,COc1cc(CSc2nnnn2-c2ccc(C)cc2)cc(OC)c1OC,2.38 µM
4,CCOc1ccc(Nc2cc(C)nc(-n3nc(C)cc3C)n2)cc1,0.191 µM
5,O=C(Cc1ccc(-n2cccc2)cc1)NCc1cccs1,0.513 µM
6,CCn1c(=O)c(C(=O)Nc2nc3ccccc3[nH]2)c(O)c2ccccc21,14.3 µM (inactive)
7,CCOC(=O)c1[nH]c(C)c(C(=O)c2cc(F)ccc2F)c1C,0.204 µM
8,CCCCN(C)S(=O)(=O)c1ccc(C(=O)Nc2nnc(CSC)o2)cc1,27.9 µM (inactive)
9,Cn1c(CN2CCOCC2)nc2cc(NC(=O)c3ccc(Cl)cc3)ccc21,1.26 µM
10,O=c1c2ccccc2nnn1CSc1nnc(-c2cccs2)n1Cc1ccccc1,> 40 µM (inactive)
11,Oc1c(CN2CCN(c3ccccn3)CC2)cc(Cl)c2cccnc12,2.85 µM
12,COc1cc(C(Nc2ccccn2)c2ccc3ccc(C)nc3c2O)cc(OC)c1O (stereo unspecified),6.78 µM (inactive)
13,CCCCCN=Cc1c(C)[nH]n(-c2nc3ccccc3s2)c1=O,6.35 µM (inactive)
14,COc1cccc(/C=N/n2c(SC)nnc2-c2ccccc2)c1O,10 µM (inactive)
15,CCOC(=O)C(C)Sc1nc2c(cnn2-c2ccc(C)cc2)c(=O)[nH]1 (stereo unspecified),> 40 µM (inactive)
16,O=C(Nc1ccc2oc(Cc3ccc(Cl)cc3)nc2c1)c1cccnc1,27.8 µM (inactive)
17,O=C(Nc1nc2ccc(S(=O)(=O)N3CCCC3)cc2s1)C1CCCCC1,3.73 µM
18,CCOC(=O)c1oc2ccc(S(=O)(=O)Nc3ccc4c(c3)n(C)c(=O)n4C)cc2c1C,11.3 µM (inactive)
19,Cc1ccc2c(c1)nnn2C1CCN(S(=O)(=O)c2ccc(C(=O)N3C(C)CCCC3C)cc2)CC1 (stereo unspecified),9.39 µM (inactive)
20,COc1ccc(NC(=O)c2cnc(C)cn2)c2ncccc12,5.63 µM (inactive)
21,Cc1cc(C(=O)N2CCN(c3cccc(Cl)c3)CC2)c(C)o1,4.95 µM
22,O=C(Nc1cc(N2CCOCC2)ncn1)NC1(C(F)(F)F)Oc2ccc(Cl)cc2O1 (stereo unspecified),4.81 µM
23,CCOC(=O)N1CCN(S(=O)(=O)c2ccc(C(=O)Nc3ccc(F)cc3F)cc2)CC1,1.09 µM
24,COC(=O)c1sc(N)c(C(=O)OC)c1COC(=O)c1c(C)noc1C,2.35 µM
25,CCOc1ccc(N(CC)S(=O)(=O)c2ccc3c(c2)oc(=O)n3C)cc1,2.94 µM
26,CCOC(=O)CSC1=C(C#N)C(c2sccc2C)CC(=O)N1 (stereo unspecified),1.91 µM

row,Compound,CC50
1,COc1cccc2sc(Nc3nnc(-c4cccs4)o3)nc12,10.6 µM (inactive)
2,CCCCNc1ncnc2c1cnn2-c1ccc(Cl)cc1,2.56 µM
3,CCCCn1c(CN2CCN(c3cccc(Cl)c3)CC2)nc2c1c(=O)[nH]c(=O)n2C,2.84 µM
4,CCOC(=O)COc1cccc2c(=O)n(CC(=O)NCc3ccc4c(c3)OCO4)ccc12,5.51 µM (inactive)
5,CCN(CC)C(=O)C1CCCc2c1[nH]c1ccc(Cl)cc21 (stereo unspecified),> 40 µM (inactive)
6,CCOc1ccc(C2=Nn3c(nnc3-c3ccc(OC)cc3)SC2)cc1,0.841 µM
7,Clc1ccc(Cn2ncc3c(NCc4ccco4)ncnc32)c(Cl)c1,3.8 µM
8,CCOC(=O)C1CCCN(C(=O)c2cc3c(-c4cccc(OC)c4)nn(C)c3s2)C1 (stereo unspecified),9.76 µM (inactive)
9,CCOc1ccc(-c2[nH]ncc2-c2ccc(OC)c(OC)c2)c(O)c1,1.21 µM
10,COc1cc(C)c(Cl)cc1S(=O)(=O)NCc1ccncc1,3.1 µM
11,CC(C)Cn1c(N)c(C(=O)CSc2ccc3c(c2)OCCO3)c(=O)n(C)c1=O,> 40 µM (inactive)
12,CCOc1ccc2nc(NC(=O)c3ccoc3C)sc2c1,12.6 µM (inactive)
13,CCOC(=O)c1c(C)c(C(=O)Nc2ccc(N(C)C)cc2)c(C)n1CC,5.84 µM (inactive)
14,Cc1c(C(=O)OCCOC(C)C)[nH]c2c1C(=O)CC(c1ccco1)C2 (stereo unspecified),0.156 µM
15,CC(=O)c1sc(NC(=O)C2(F)C(F)(F)C(F)(F)C(F)(F)C(F)(F)C2(F)F)nc1C,> 13 µM (inactive)
16,Cn1ncc2c(Nc3ccc(-c4ccccc4)cc3)ncnc21,> 40 µM (inactive)
17,Cn1cc(C(=O)c2ccc(Cl)cc2)cc1-c1nc2ccccc2n1C,23.3 µM (inactive)
18,CC(=O)NC(c1ccco1)c1ccc2cccnc2c1O (stereo unspecified),3.65 µM
19,Cc1noc(C)c1CSc1nc2ccccc2c(=O)n1-c1ccccc1,2.28 µM
20,Cc1ccc(C2c3c(-c4ccccc4O)n[nH]c3C(=O)N2Cc2ccncc2)cc1 (stereo unspecified),6.79 µM (inactive)
21,CCC(=NC(C)c1ccccc1)c1c(O)n(C)c(=O)n(C)c1=O (stereo unspecified),11.3 µM (inactive)
22,O=C(CSc1ncnc2sc3c(c12)CCCCC3)NCc1ccco1,9.83 µM (inactive)
23,CC(=O)Nc1ccc(S(=O)(=O)n2cnc3cc(C)c(C)cc32)cc1,24.8 µM (inactive)
24,Cc1noc(C)c1CSc1nc2ccccc2nc1NS(=O)(=O)c1ccc(Cl)cc1,31.5 µM (inactive)
25,CCN=c1scc(-c2ccc3c(c2)NC(=O)CO3)n1N=C1CCCC1,8.47 µM (inactive)
26,Cc1cc(C)nc(SCC(=O)Nc2ccc(N3CCOCC3)c(Cl)c2)n1,5.6 µM (inactive)

row,Compound,CC50
1,O=c1oc2ccccc2cc1NCc1ccccc1O,> 40 µM (inactive)
2,COc1ccccc1N1CCN(C(=O)CSc2nnc3n2C(C)(C)Cc2ccccc2-3)CC1,4.67 µM
3,O=C(Nc1ccc(Cl)cn1)c1cccc(F)c1,> 4.4 µM (inactive)
4,COc1cc(-c2nnc3n2N=C(c2ccccc2)CS3)cc(OC)c1OC,0.392 µM
5,COc1cc(C(=O)N2CCN(c3cc(Cl)ccc3Cl)CC2)cc(OC)c1OC,0.134 µM
6,c1ccc(CNc2ncnc3c2cnn3-c2ccccc2)cc1,3.54 µM
7,CCN1CCN(S(=O)(=O)c2cc(OCC(=O)NC3CCCCC3)c(C)cc2Cl)CC1,3.3 µM
8,N=c1c2c(n(Cc3ccc(Cl)cc3)c3c1CCC3)CCC2,2.06 µM
9,Oc1c(CN2CCCCC2)cc(COCc2ccccc2)c2cccnc12,3.31 µM
10,Cc1nn(-c2ccccc2)c(C)c1C(=O)OCC(=O)c1c(N)n(CC(C)C)c(=O)n(C)c1=O,9.53 µM (inactive)
11,CCCCOc1ccc(C(=O)Nc2ccncc2)cc1,1.79 µM
12,COc1ccc(-n2nnnc2-c2cccc(OC)c2)cc1,0.195 µM
13,Cc1ccc(Cl)cc1N1CCN(C(=O)C2CCN(c3nnc(-n4cccc4)s3)CC2)CC1,> 40 µM (inactive)
14,COC(=O)c1ccc(C)c(NS(=O)(=O)c2ccc3c(c2)OCCO3)c1,0.504 µM
15,CCOc1ccc(S(=O)(=O)n2cnc3cc(C)c(C)cc32)cc1,4.83 µM
16,CN(Cc1ccccc1)S(=O)(=O)c1ccc(C(=O)Nc2nnc(C3CC3)o2)cc1,26 µM (inactive)
17,O=C(O)C1CC=CCC1C(=O)Nc1ccc(S(=O)(=O)N2CCCc3ccccc32)cc1 (stereo unspecified),> 40 µM (inactive)
18,COCc1cc(CN2CCCC2)c(O)c2ncccc12,> 13 µM (inactive)
19,Cc1cc(NC(=O)CCCS(=O)(=O)c2nc(-c3cccs3)cc(C(F)(F)F)n2)no1,2 µM
20,COc1ccc(CCNc2c(C)c(C)nc3ncnn23)cc1,> 13 µM (inactive)
21,CCCOc1ccccc1C1CC(=O)Nc2cc3c(cc21)OCCO3 (stereo unspecified),0.745 µM
22,COc1ccc(-c2nnnn2-c2ccccc2OC)cc1,8.67 µM (inactive)
23,COC(=O)c1[nH]c2c(c1C)C(=O)CC(c1cc(OC)ccc1OC)C2 (stereo unspecified),3.89 µM
24,Cc1conc1NC(c1cccs1)c1ccc2cccnc2c1O (stereo unspecified),> 13 µM (inactive)
